The values below come from publication PMC10384408, “Anticancer Tungstenocenes with a Diverse Set of (O,O–), (O,S–) and (O,N–) Chelates—A Detailed Biological Study Using an Improved Evaluation via 3D Spheroid Models” (Pharmaceutics, 2023).

Where two headings read alike, the source gives them in different places.

Data set [1] relates to A549 (non-small cell lung carcinoma) cells. In words: MTT cytotoxicity assay, A549 monolayer. It is filed as cell-based, human. On the procedure:
(§1) CH1/PA-1 (ovarian teratocarcinoma), SW480 (colon carcinoma) and A549 (non-small cell lung cancer) cells were maintained as described in the reference. IMR-90 human fetal lung fibroblasts (from the European Collection of Authenticated Cell Cultures, Porton Down, Salisbury, UK) were cultured in Stable Cell^TM DMEM/F12 supplemented with 0.01 mg/mL human recombinant insulin (both purchased from Sigma-Aldrich) and 10% fetal bovine serum (FBS, BioWest, Nuaillé, France). Human colon carcinoma cell lines HCT116 and HT29 (both kindly provided by the Institute of Cancer Research, Department of Medicine I, Medical University of Vienna, Austria) were cultured in McCoy’s 5a medium supplemented with 4 mM L-glutamine (both purchased from Sigma-Aldrich) and 10% FBS. MCF-7 human breast adenocarcinoma cells (kindly provided by M. Ogris, Department of Pharmaceutical Sciences, University of Vienna, Austria) were maintained in DMEM (high glucose) supplemented with 4 mM L-glutamine, 0.1 mg/mL human insulin (all purchased from Sigma-Aldrich) and 10% FBS. All cell lines were grown as monolayers in 75 cm^2 culture flasks (CytoOne, Starlab, Hamburg, Germany) at 37 °C in a humidified atmosphere containing 5% CO2.
(§2) Exponentially growing cells were plated into 96-well microculture plates (CytoOne, tissue culture treated, Starlab, Hamburg, Germany) in densities of 1 × 10^3 CH1/PA-1, 2 × 10^3 SW480, 3 × 10^3 A549 and 7 × 10^3 IMR-90 cells per well (each in 100 µL). After a 24 h preincubation, drugs were added in serial dilution to give a final volume of 200 µL/well and exposed for 96 h. At the end of the exposure, the drug solutions were replaced by 100 µL RPMI 1640/MTT mixture (7:1 ratio). MTT (3-(4,5-dimethylthiazol-2-yl)-2,5-diphenyl-2H-tetrazolium bromide), (Acros Organics, Geel, Belgium) solution was prepared in phosphate-buffered saline (5 mg/mL) and mixed with RPMI1640 medium supplemented with 4 mM L-glutamine (both from Sigma-Aldrich) and 10% FBS. After 4 h incubation, the formazan crystals were solubilized in 150 µL of DMSO per well. Absorbance was measured at 550 nm (and at 690 nm as a reference) with a microplate reader (ELx808, BioTek, Winoosky, VT, USA) and Gen5^TM 3.08 software (BioTek). The 50% inhibitory concentrations (IC50) relative to untreated controls were interpolated from concentration-effect curves. At least three biologically and technically independent experiments were performed.

The nature of data set [2]: Cyclic voltammetry in MeCN (W(IV) to W(V)). To be noted: vs. NHE, scan rate 200 mV/s. The class given is physicochemical. The procedure:
NMR spectra were recorded with a Bruker FT-NMR Avance III^TM 500 MHz spectrometer at 500.10 (^1H), and 125.75 MHz (^13C) using DMSO–d6. 2D-NMR measurements were recorded utilizing standard pulse programs COSY, HSQC and HMBC. The Microanalytical Laboratory of the University of Vienna performed the elemental analyses with a Eurovector EA 3000(2009) equipped with a high temperature pyrolysis furnace (HT, Hekatech, Germany, 2009). Elemental analyses’ samples were weighed (weights from 1–3 mg were used) on a Sartorius SEC 2 ultra-micro balance with ±0.1 µg resolution. Two NIST-certified reference materials were used for calibration: sulfanilamide (C6H8N2O2S) and BBOT (2,5-bis-(5-tert-butyl-2-benzoxazol-2-yl)-thiophenone, C26H26N2O2S). The limit of quantification (LOQ) was 0.05 w% for C, H, N and 0.02 w% for S. For samples without N and/or S, the content of these elements was determined and verified to be below the LOQ. X-ray diffraction analyses were carried out on a Bruker X8 APEX II CCD diffractometer at 100 K. ESI-MS were recorded on a Bruker AmaZon SL ion trap mass spectrometer (Bruker Daltonics GmbH). Data were obtained and processed with Compass 1.3 and Data Analysis 4.0 (Bruker Daltonics GmbH). Infrared spectra were attained on a Bruker Vertex 70 FT-IR-spectrometer with an ATR-unit (attenuated total reflection unit) in the range of 4000–600 cm^−1. Intensities of the reported bands are described with w for weak, m for medium and s for strong; broad signals are additionally specified with the letter b in front of these abbreviations. Cyclic voltammograms (CVs) were measured in a three-electrode cell using 2 mm diameter glassy carbon disk working electrode, a platinum auxiliary electrode and an Ag|Ag^+ reference electrode containing 0.1 M AgNO3. Measurements were carried out at room temperature using an EG&G PARC potentiostat/galvanostat 273A. The solutions were deoxygenized by purging a stream of argon for 3 min through the solution and the experiment was performed under an argon atmosphere. The potentials were measured in a freshly prepared solution of (n Bu4N)[BF4] (0.1 M) in acetonitrile using ferrocene (Fe(η^5-C5H5)2) (E1/2 = +0.72 V vs. NHE) as an internal standard and are quoted relative to the normal hydrogen electrode (NHE).
The electrochemical behavior of all complexes and the precursor Cp2WCl2 was studied by cyclic voltammetry with a scan rate of 200 mV/s, from −0.5 to +1.2 or +1.5 V. Measurements were performed in triplicate. Due to low water solubility of compounds 1–10 acetonitrile (MeCN) was utilized in order to reach the 2 mM concentration.

The subject of data set [3] is SW480 (colon carcinoma) cells. In words: MTT cytotoxicity assay, SW480 monolayer. The class given is cell-based, human. The procedure:
as §1, §2

Data set [4] concerns CH1/PA-1 (ovarian teratocarcinoma) cells. In words: MTT cytotoxicity assay, CH1/PA-1 monolayer. As to conditions: exposure time 96 h, mean ± SD. The class given is cell-based, human. On the procedure: as §1, §2
The nature of data set [5]: Solubility in PBS (1% DMSO). It is filed as physicochemical. On the procedure:
Stock solutions in DMSO of compounds 1–10 were utilized to determine the solubility in PBS by adding 1 vol% of the stock solution to a suitable amount of PBS. […] UV/Vis data were recorded on a Perkin Elmer Lambda 650 UV/Vis Spectrophotometer with a Peltier element for temperature control.

Data set [6] relates to SW480 (colon carcinoma) cells. To be noted: MTT assay, 96 h; cited from earlier work.
For data set [7], the system named is A549 (non-small cell lung carcinoma) cells. As to conditions: MTT assay, 96 h; cited from earlier work.
Data set [8] has as its system CH1/PA-1 (ovarian teratocarcinoma) cells. To be noted: MTT assay, 96 h; cited from earlier work.

For the molecule `Cc1occc(=O)c1[O-].F[P-](F)(F)(F)(F)F.[W+4].c1cc[cH-]c1.c1cc[cH-]c1` [Compound 1, Bis(η^5-cyclopentadienyl)[2-methyl-3-(oxo-κO)-4-(1H)-pyran-4-ato-κO]tungsten(IV) hexafluorophosphate], in data set [1] (96 h), the “activity in A549” value is recorded as “no activity was observed”. The IC50 is greater than 200 µM in data set [1] (exposure time 96 h, mean ± SD); greater than 200 µM in data set [3] (exposure time 96 h, mean ± SD); 85 ± 41 µM in data set [4]. The E1/2 in data set [2] stood at 1.037 V. For the same molecule, the “activity in SW480” value in data set [3] (96 h) is given as “no activity was observed”. In data set [5], the “Solubility in PBS (1% DMSO)” value was found to be 230 µg/mL.

On to `[Cl-].[Cl-].[Mo+4].c1cc[cH-]c1.c1cc[cH-]c1` [Cp2MoCl2, Molybdenocene dichloride], for which the IC50 in data set [6], in data set [7] and in data set [8] was greater than 200 µM throughout.

As for `Cc1occc(=O)c1[O-].F[P-](F)(F)(F)(F)F.[Mo+4].c1cc[cH-]c1.c1cc[cH-]c1` [[Cp2Mo(L1)]PF6], the IC50 in data set [6], in data set [7] and in data set [8] was greater than 200 µM in each case.

With `Cc1occc(=S)c1[O-].F[P-](F)(F)(F)(F)F.[Mo+4].c1cc[cH-]c1.c1cc[cH-]c1` [[Cp2Mo(L2)]PF6], the IC50 in data set [6] is 55 ± 9 µM; in data set [7], 106 ± 15 µM; in data set [8], 29 ± 10 µM.

For `F[P-](F)(F)(F)(F)F.O=c1c([O-])c(-c2ccc(Cl)cc2)oc2ccccc12.[Mo+4].c1cc[cH-]c1.c1cc[cH-]c1` [[Cp2Mo(L3)]PF6], the IC50 was 5.6 ± 0.2 µM in data set [6], 24 ± 4 µM in data set [7] and 1.7 ± 0.4 µM in data set [8].

Turning to `F[P-](F)(F)(F)(F)F.[Mo+4].[O-]c1c(-c2ccc(Cl)cc2)oc2ccccc2c1=S.c1cc[cH-]c1.c1cc[cH-]c1` [[Cp2Mo(L4)]PF6], the figures for the IC50 in data set [6], in data set [7] and in data set [8] were 1.6 ± 0.2 µM, 5.7 ± 1 µM and 0.72 ± 0.13 µM, respectively.

In the case of `F[P-](F)(F)(F)(F)F.O=C([O-])c1ccccn1.[Mo+4].c1cc[cH-]c1.c1cc[cH-]c1` [[Cp2Mo(L5)]PF6], the half-inhibitory concentration (IC50) in data set [6], in data set [7] and in data set [8] was greater than 200 µM throughout.
